# Marks after values point to notes of the source that are not given here.
# Conditions: pH 2.3
row,Structure (SMILES),Log P
1,COC(=O)C(C#N)=C(NCC1CCCS1)c1cccnc1Cl (stereo not drawn) [Compound 20],2.63
2,CCOC(=O)C(C#N)=C(NC(C)C(C)C)c1ccc(Cl)nc1 (stereo not drawn) [Compound 1617],3.39
3,CC(C)C(C)NC(=C(C#N)C(N)=O)c1cccnc1Cl (stereo not drawn) [Compound 993],1.97
4,CCOC(=O)C(C#N)=C(NC(C)C(C)C)c1cccnc1Br (stereo not drawn) [Compound 1545],3.27
5,COC(=O)C(C#N)=C(Nc1ccccc1SC)c1cccnc1Cl [Compound 334],2.82^[c]; 2.82^[b]

# Same assay, conditions: pH 2.7
row,Structure (SMILES),Log P
1,CCOC(=O)C(C#N)=C(NC(C)C1CC1)c1cn(C)nc1C(F)F (stereo not drawn) [Compound 882],2.88^[a]
2,CCOC(=O)C(C#N)=C(NC(C)CN1CCCC1)c1cccnc1Cl (mixture of isomers) [Compound 283],3.35^[a]
3,CCOC(=O)C(C#N)=C(NC(C)CCCC(C)C)c1sccc1C(F)(F)F (stereo not drawn) [Compound 926],5.39^[a]
4,CCOC(=O)C(C#N)=C(NC(C)(C)C#CCOC)c1sccc1C(F)(F)F [Compound 1099],3.55^[a]
5,CCOC(=O)C(C#N)=C(NC(C)c1ccccn1)c1cn(C)nc1C(C)(F)F (stereo not drawn) [Compound 315],2.57^[a]
6,CCOC(=O)C(C#N)=C(NC(C(=O)OC)C(C)C)c1cn(C)nc1OC (stereo not drawn) [Compound 711],2.71^[a]
7,CCOC(=O)C(C#N)=C(NC(C)c1c(C)sc2c1CCCC2)c1cccnc1Cl (racemic) [Compound 280],4.4^[a]
8,CCOC(=O)C(C#N)=C(NC(C)C(C)C)c1c(C(F)F)nn(C)c1F (racemic) [Compound 1000],3.53^[a]
9,CCOC(=O)C(C#N)=C(NC(C)c1nccs1)c1ccnc(Cl)c1F (stereo not drawn) [Compound 1313],2.96^[a]
10,CCOC(=O)C(C#N)=C(NC(C)C(C)OC)c1scnc1Cl (racemic) [Compound 1480],2.94^[a]
11,CCOC(=O)C(C#N)=C(NC(C)CN)c1sccc1Br (stereo not drawn) [Compound 707],1.1^[a]
12,CCOC(=O)C(C#N)=C(NCC(c1ccccc1)C(C)C)c1cn(C)nc1C(F)F (racemic) [Compound 1239],3.94^[a]
13,CCOC(=O)C(C#N)=C(NC(C)c1ccc(Cl)nc1)c1cccnc1Cl (stereo not drawn) [Compound 1437],2.8^[a]
14,CCOC(=O)C(C#N)=C(NC(C)c1ccccn1)c1ccncc1Br (mixture of isomers) [Compound 299],2.5^[a]
15,CCOC(=O)C(C#N)=C(NC1CCc2ccccc21)c1cn(C)nc1C(F)F (stereo not drawn) [Compound 1079],3.42^[a]
16,CCOC(=O)C(C#N)=C(NC(CC(C)C)C(F)(F)F)c1cn(C)nc1C(F)F (stereo not drawn) [Compound 1417],3.8^[a]
17,CCOC(=O)C(C#N)=C(NC(C)c1ccccn1)c1cnn(C)c1Cl (racemic) [Compound 1484],2.35^[a]
18,CCOC(=O)C(C#N)=C(Nc1ccccc1SC)c1ccsc1Br [Compound 412],3.99^[a]
19,CCOC(=O)C(C#N)=C(NC(C)C(C)C)c1sc(Cl)nc1Cl (stereo not drawn) [Compound 973],4.23^[a]
20,CCOC(=O)C(C#N)=C(NCc1ccccc1SC)c1ccsc1Br [Compound 535],4.01^[a]
21,CCOC(=O)C(C#N)=C(NC(C)C1CC1)c1cnccc1C(F)(F)F (racemic) [Compound 897],3.2^[a]
22,CCc1ccc(C(C)NC(=C(C#N)C(=O)OC)c2cccnc2Cl)cc1 (stereo not drawn) [Compound 407],3.63^[a]
23,CCOC(=O)C(C#N)=C(NC1CC1C)c1cccnc1Cl (stereo not drawn) [Compound 1067],2.86^[a]

row,Structure (SMILES),Log P
1,CCOC(=O)C(C#N)=C(NC(C)C(C)OC)c1cc(Cl)sc1Cl (stereo not drawn) [Compound 1603],4.02^[a]
2,CCOC(=O)C(C#N)=C(NC1(CC)CC1)c1cccnc1Cl [Compound 1641],3.13^[a]
3,CCOC(=O)C(C#N)=C(NCc1ccccn1)c1sc(C)nc1C(F)(F)F [Compound 144],2.7^[a]
4,CCOC(=O)C(C#N)=C(NC(C)c1ccccn1)c1ccnc(Br)c1F (racemic) [Compound 1395],3^[a]
5,CCOC(=O)C(C#N)=C(NCC(C)c1nccs1)c1cccnc1Cl (stereo not drawn) [Compound 331],2.57^[a]
6,CCCC(COCC)NC(=C(C#N)C(=O)OCC)c1cn(C)nc1C(F)F (stereo not drawn) [Compound 1354],3.44^[a]
7,CCOC(=O)C(C#N)=C(NC(C)c1nccs1)c1cnccc1C(F)(F)F (racemic) [Compound 256],2.7^[a]
8,COC(=O)C(C#N)=C(NC(C)c1cccc(OC)c1)c1cccnc1Cl (stereo not drawn) [Compound 377],2.89^[a]
9,CCOC(=O)C(C#N)=C(NC1CC1c1ccccc1)c1cccnc1Cl (stereo not drawn) [Compound 1068],3.44^[a]
10,CCOC(=O)C(C#N)=C(NC(C#N)Cc1ccccc1)c1cccnc1Cl (racemic) [Compound 1259],3.02^[a]
11,C#CC(C)(C)NC(=C(C#N)C(=O)OCC)c1sc(Cl)nc1Cl [Compound 1036],3.61^[a]
12,CCOC(=O)C(C#N)=C(NCC#N)c1sc(C)nc1C(F)(F)F [Compound 790],2.35^[a]
13,CCOC(=O)C(C#N)=C(NC(C)C1(Cl)CC1)c1sccc1Br (stereo not drawn) [Compound 771],3.94^[a]
14,CCOC(=O)C(C#N)=C(NC(C)C(C)C)c1cc(Cl)sc1Cl (stereo not drawn) [Compound 1580],4.68^[a]
15,CCOC(=O)C(C#N)=C(NC(C)C(=O)NC)c1ccncc1Cl (stereo not drawn) [Compound 723],1.78^[a]
16,CCOC(=O)C(C#N)=C(NC(C)C(=O)NC)c1cn(C)nc1C(Cl)Cl (stereo not drawn) [Compound 1573],3.9^[a]
17,CCOC(=O)/C(C#N)=C(\NCc1nccs1)c1sccc1Cl [Compound 153],2.63^[a]
18,CCOC(=O)C(C#N)=C(NC(C)c1nccs1)c1c(C)nn(C)c1F (racemic) [Compound 38],2.37^[a]
19,CCOC(=O)C(C#N)=C(NC(C)C(C)C)c1cc(C)oc1C (stereo not drawn) [Compound 947],3.99^[a]
20,CCOC(=O)C(C#N)=C(NC(C)c1ccccn1)c1c(C)nn(C)c1Cl (racemic) [Compound 136],2.49^[a]
21,CCOC(=O)C(C#N)=C(NC(C)CC)c1sccc1C(F)(F)F (stereo not drawn) [Compound 829],3.83^[a]
22,CCOC(=O)C(C#N)=C(Nc1ccc(N(C)C)cc1)c1sccc1C(F)(F)F [Compound 484],3.89^[a]
23,CC#CC1(NC(=C(C#N)C(=O)OCC)c2cccnc2Cl)CCCCC1 [Compound 1430],4.06^[a]

row,Structure (SMILES),Log P
1,CCOC(=O)C(C#N)=C(NCc1ccc(Cl)cc1)c1cn(C)nc1C(F)F [Compound 555],3.31^[a]
2,CCOC(=O)C(C#N)=C(NC(C)COC)c1ccnc(Cl)c1Cl (stereo not drawn) [Compound 1392],3.06^[a]
3,CCOC(=O)C(C#N)=C(Nc1ccccc1SC)c1cc(Cl)sc1Cl [Compound 500],4.59^[a]
4,CC(C)C(C)NC(=C(C#N)C(=O)NC1CC1)c1cn(C)nc1C(F)F (stereo not drawn) [Compound 1006],2.66^[a]
5,CCOC(=O)C(C#N)=C(NC(C)COc1c(C)cccc1C)c1cccnc1Cl (stereo not drawn) [Compound 1180],4.26^[a]
6,CCOC(=O)C(C#N)=C(NC1CCC1)c1ccncc1F [Compound 804],2.66^[a]
7,CCOC(=O)C(C#N)=C(NC(C)c1ccc(Cl)cc1)c1cn(C)cc1C(F)(F)F (racemic) [Compound 542],4.2^[a]
8,CC(C)C(C)NC(=C(C#N)C(=O)N1CCCC1)c1cccnc1Cl (stereo not drawn) [Compound 1491],3.02^[a]
9,CCC(NC(=C(C#N)C(=O)OC)c1cccnc1Cl)c1cccc(Cl)c1 (stereo not drawn) [Compound 372],3.58^[a]
10,CCOC(=O)C(C#N)=C(NC(C)C1CC1)c1ccncc1Br (racemic) [Compound 903],3^[a]
11,COC(=O)C(C#N)=C(NC(C)c1ccccn1)c1cccnc1Cl (stereo not drawn) [Compound 110],1.99^[a]
12,CCOC(=O)C(C#N)=C(NC(C)C1CC1)c1cccnc1Cl (stereo not drawn) [Compound 910],3.1^[a]
13,CCOC(=O)C(C#N)=C(NC(c1cc2ccccc2s1)C(F)(F)F)c1ccsc1Br (racemic) [Compound 130],4.87^[a]
14,CCOC(=O)C(C#N)=C(NC(C)c1ccccn1)c1ccnc(-c2ccccc2)c1Cl (racemic) [Compound 1398],3.33^[a]
15,CCOC(=O)C(C#N)=C(NC(C#N)c1ccccc1Br)c1cn(C)nc1C(F)F (stereo not drawn) [Compound 1218],3.13^[a]
16,CCOC(=O)C(C#N)=C(NC(C)C(=O)OC)c1sccc1C(F)(F)F (stereo not drawn) [Compound 657],3.11^[a]
17,CCOC(=O)C(C#N)=C(NC(C)C(C)CC)c1cccnc1Cl (stereo not drawn) [Compound 1525],3.76^[a]
18,CCOC(=O)C(C#N)=C(NC(C)c1nc(C)cs1)c1sc(C)nc1C(F)(F)F (stereo not drawn) [Compound 194],3.42^[a]
19,CCOC(=O)C(C#N)=C(NC(C#N)Cc1ccccc1)c1cn(C)nc1C(F)F (stereo not drawn) [Compound 1221],2.98^[a]
20,CC(NC(=C(C#N)C(=O)N1CCOCC1)c1cccnc1Cl)c1nccs1 (stereo not drawn) [Compound 1595],1.84^[a]
21,CCOC(=O)C(C#N)=C(NC(C)c1ccc(Cl)cc1)c1sccc1C(F)(F)F (stereo not drawn) [Compound 368],4.47^[a]
22,CCOC(=O)C(C#N)=C(NC(C)c1ncc(C)s1)c1sccc1C(F)(F)F (stereo not drawn) [Compound 216],3.67^[a]

# Same assay, conditions: pH 7.5
row,Structure (SMILES),Log P
1,COC(=O)C(C#N)=C(NCC1CCCS1)c1cccnc1Cl (stereo not drawn) [Compound 20],2.47
2,CCOC(=O)C(C#N)=C(NC(C)C(C)C)c1ccc(Cl)nc1 (stereo not drawn) [Compound 1617],3.41
3,CC(C)C(C)NC(=C(C#N)C(N)=O)c1cccnc1Cl (stereo not drawn) [Compound 993],1.96
4,CSCC(C)NC(=C(C#N)C(=O)OCC(F)(F)F)c1cccnc1Cl (stereo not drawn) [Compound 585],2.98
5,COC(=O)C(C#N)=C(Nc1ccccc1SC)c1cccnc1Cl [Compound 334],2.82^[c]; 2.82^[b]

# Reference: US8476197B2, “Aminopropenoates as fungicides” (priority 2009, dated 2013)
